Experimental data taken from US12083105B2, “Compositions and methods for treating adult-onset neuronal ceroid lipofuscinosis (Kufs disease)” (CORNELL UNIVERSITY, priority 2020, dated 2024).

System: CSPα^WT, CSPα^L115R and CSPα^L116Δ
Assay: Fe—S cluster disruption of purified recombinant CSPα oligomers (SDS-PAGE, immunoblotting)
Assay type: biochemical
Details: purified recombinant proteins; 1 mM, 2 h at room temperature; FIG. 2B
Description: FIGS. 2A-2F show dissociation of CSPα ANCL mutant protein oligomers by acid treatment. […] Purified recombinant CSPα^WT, CSPα^L115R CSPα^L116Δ, and SSPα proteins were incubated with either 1 mM L-cysteine for 2 h at room temperature (+L-Cys) or 0.1 N HCl for 20 min at room temperature (+HCl). The proteins were separated by SDS-PAGE, and resultant gels were subjected to immunoblotting using anti-CSPα antibody. A representative immunoblot is shown. Key: Mono=monomer; Oligo=oligomers of higher mass than dimer. Mono=monomer; Oligo=oligomers; grey arrowheads=possible dimer and tetramer. […] The proteins were subjected to increasing trypsin concentrations (0, 0.01, 0.05, 0.1, and 1.0 mg/ml) for 20 min at 4° C., followed by immediate inhibition of trypsin with addition of phenylmethylsulfonyl fluoride (PMSF) to 1 mM. After proteolysis was stopped, CSPα oligomers were disrupted with 0.1 N HCl for 20 min at room temperature, followed by 10 min of boiling in Laemmli sample buffer. The resultant proteins were separated by SDS-PAGE, and subjected to immunoblotting using anti-CSPα antibody. […] The proteins were first incubated with 0.1 N HCl for 20 min at room temperature and then neutralized with 1 M sodium cacodylate to pH 7.0. Limited proteolysis was then performed using increasing trypsin concentrations (0, 0.01, 0.05, 0.1, and 1.0 mg/ml) for 20 min at 4° C. […]

Structure (SMILES): N[C@@H](CS)C(=O)O [L-cysteine]
- disassembly of oligomers of CSPα^WT, CSPα^L115R and CSPα^L116Δ: no significant effect
